# Activity calls are given as the source filed them. No cut-off for these calls is given here.
# Tests used:
# MCF7 [1] = assay: Growth inhibition of human MCF7 cells at 20 uM after 72 hrs by ATP bioluminescence assay; type: functional, cell-based
# MCF7 [2] = assay: Growth inhibition of human MCF7 cells at 20 uM after 72 hrs by SRB assay; type: functional, cell-based
# A549 [3] = assay: Induction of ROS generation in human A549 cells assessed as accumulation at M2 phase at 20 uM after 48 hrs flow cytometry (reference value: 1.07%); type: functional
# A549 [4] = assay: Induction of ROS generation in human A549 cells assessed as accumulation at M1 phase at 20 uM after 48 hrs flow cytometry (reference value: 97.60%); type: functional
# A549 [5] = assay: Induction of apoptosis in human A549 cells assessed as late apoptotic cells at 20 uM after 48 hrs by caspase 3/7 staining-based flow cytometry (reference value: 2.56%); type: functional
# MCF7 [6] = assay: Induction of apoptosis in human MCF7 cells assessed as late apoptotic cells at 20 uM after 48 hrs by annexin V-propidium iodide staining-based flow cytometry (reference value: 7.25%); type: functional
# MCF7 [7] = assay: Induction of apoptosis in human MCF7 cells assessed as necrotic cells at 20 uM after 48 hrs by annexin V-propidium iodide staining-based flow cytometry (reference value: 0.35%); type: functional
# A549 [8] = assay: Growth inhibition of human A549 cells after 72 hrs by ATP bioluminescence assay; type: functional, cell-based; conditions: A549, 72 h
# MCF7 [9] = assay: Induction of mitochondrial membrane depolarization in human MCF7 cells assessed as depolarized dead cells at 20 uM after 48 hrs by 7-AAD/Muse mito-potential dye-based assay (reference value: 12.43%); type: functional
# A549 [10] = assay: Induction of apoptosis in human A549 cells assessed as early apoptotic cells at 20 uM after 48 hrs by annexin V-propidium iodide staining-based flow cytometry (reference value: 3.75%); type: functional
# A549 [11] = assay: Induction of apoptosis in human A549 cells assessed as viable cells at 20 uM after 48 hrs by caspase 3/7 staining-based flow cytometry (reference value: 94.25%); type: functional; conditions: A549, 48 h, read-out: Activity
# PC-3 [12] = assay: Induction of apoptosis in human PC3 cells assessed as early apoptotic cells at 20 uM after 48 hrs by annexin V-propidium iodide staining-based flow cytometry (reference value: 1.55%); type: functional
# A549 [13] = assay: Induction of apoptosis in human A549 cells assessed as late apoptotic cells at 20 uM after 48 hrs by annexin V-propidium iodide staining-based flow cytometry (reference value: 3.05%); type: functional
# PC-3 [14] = assay: Induction of apoptosis in human PC3 cells assessed as necrotic cells at 20 uM after 48 hrs by annexin V-propidium iodide staining-based flow cytometry (reference value: 2.45%); type: functional
# A549 [15] = assay: Induction of mitochondrial membrane depolarization in human A549 cells assessed as depolarized live cells at 20 uM after 48 hrs by 7-AAD/Muse mito-potential dye-based assay (reference value: 3.84%); type: functional
# MCF7 [16] = assay: Induction of apoptosis in human MCF7 cells assessed as early apoptotic cells at 20 uM after 48 hrs by caspase 3/7 staining-based flow cytometry (reference value: 2.65%); type: functional
# PC-3 [17] = assay: Growth inhibition of human PC3 cells at 20 uM after 72 hrs by ATP bioluminescence assay; type: functional, cell-based
# A549 [18] = assay: Induction of apoptosis in human A549 cells assessed as necrotic cells at 20 uM after 48 hrs by annexin V-propidium iodide staining-based flow cytometry (reference value: 1.4%); type: functional
# MCF7 [19] = assay: Induction of apoptosis in human MCF7 cells assessed as late apoptotic cells at 20 uM after 48 hrs by caspase 3/7 staining-based flow cytometry (reference value: 10.80%); type: functional
# PC-3 [20] = assay: Induction of apoptosis in human PC3 cells assessed as late apoptotic cells at 20 uM after 48 hrs by caspase 3/7 staining-based flow cytometry (reference value: 1.90%); type: functional
# MCF7 [21] = assay: Induction of apoptosis in human MCF7 cells assessed as viable cells at 20 uM after 48 hrs by annexin V-propidium iodide staining-based flow cytometry (reference value: 90.25%); type: functional; conditions: MCF7, 48 h, read-out: Activity
# A549 [22] = assay: Induction of mitochondrial membrane depolarization in human A549 cells assessed as dead cells at 20 uM after 48 hrs by 7-AAD/Muse mito-potential dye-based assay (reference value: 2.44%); type: functional
# PC-3 [23] = assay: Induction of apoptosis in human PC3 cells assessed as early apoptotic cells at 20 uM after 48 hrs by caspase 3/7 staining-based flow cytometry (reference value: 0.3%); type: functional
# PC-3 [24] = assay: Induction of mitochondrial membrane depolarization in human PC3 cells assessed as dead cells at 20 uM after 48 hrs by 7-AAD/Muse mito-potential dye-based assay (reference value: 2.20%); type: functional
# MCF7 [25] = assay: Induction of ROS generation in human MCF7 cells assessed as accumulation at M2 phase at 20 uM after 48 hrs flow cytometry (reference value: 2.33%); type: functional
# PC-3 [26] = assay: Induction of mitochondrial membrane depolarization in human PC3 cells assessed as depolarized dead cells at 20 uM after 48 hrs by 7-AAD/Muse mito-potential dye-based assay (reference value: 2.05%); type: functional
# PC-3 [27] = assay: Induction of ROS generation in human PC3 cells assessed as accumulation at M1 phase at 20 uM after 48 hrs flow cytometry (reference value: 99.67%); type: functional
# PC-3 [28] = assay: Induction of mitochondrial membrane depolarization in human PC3 cells assessed as live cells at 20 uM after 48 hrs by 7-AAD/Muse mito-potential dye-based assay (reference value: 83.15%); type: functional
# MCF7 [29] = assay: Induction of mitochondrial membrane depolarization in human MCF7 cells assessed as live cells at 20 uM after 48 hrs by 7-AAD/Muse mito-potential dye-based assay (reference value: 78.59%); type: functional
# MCF7 [30] = assay: Induction of apoptosis in human MCF7 cells assessed as viable cells at 20 uM after 48 hrs by caspase 3/7 staining-based flow cytometry (reference value: 85.30%); type: functional; conditions: MCF7, 48 h, read-out: Activity
# A549 [31] = assay: Induction of mitochondrial membrane depolarization in human A549 cells assessed as depolarized dead cells at 20 uM after 48 hrs by 7-AAD/Muse mito-potential dye-based assay (reference value: 7.88%); type: functional
# A549 [32] = assay: Growth inhibition of human A549 cells at 20 uM after 72 hrs by SRB assay; type: functional, cell-based
# A549 [33] = assay: Induction of apoptosis in human A549 cells assessed as viable cells at 20 uM after 48 hrs by annexin V-propidium iodide staining-based flow cytometry (reference value: 91.80%); type: functional; conditions: A549, 48 h, read-out: Activity
# A549 [34] = assay: Induction of apoptosis in human A549 cells assessed as early apoptotic cells at 20 uM after 48 hrs by caspase 3/7 staining-based flow cytometry (reference value: 1.70%); type: functional
# MCF7 [35] = assay: Induction of apoptosis in human MCF7 cells assessed as necrotic cells at 20 uM after 48 hrs by caspase 3/7 staining-based flow cytometry (reference value: 1.25%); type: functional
# MCF7 [36] = assay: Growth inhibition of human MCF7 cells after 72 hrs by ATP bioluminescence assay; type: functional, cell-based; conditions: MCF7, 72 h
# PC-3 [37] = assay: Induction of apoptosis in human PC3 cells assessed as necrotic cells at 20 uM after 48 hrs by caspase 3/7 staining-based flow cytometry (reference value: 3.05%); type: functional
# MCF7 [38] = assay: Induction of mitochondrial membrane depolarization in human MCF7 cells assessed as dead cells at 20 uM after 48 hrs by 7-AAD/Muse mito-potential dye-based assay (reference value: 2.30%); type: functional
# PC-3 [39] = assay: Induction of apoptosis in human PC3 cells assessed as late apoptotic cells at 20 uM after 48 hrs by annexin V-propidium iodide staining-based flow cytometry (reference value: 1.45%); type: functional
# A549 [40] = assay: Induction of mitochondrial membrane depolarization in human A549 cells assessed as live cells at 20 uM after 48 hrs by 7-AAD/Muse mito-potential dye-based assay (reference value: 85.84%); type: functional
# PC-3 [41] = assay: Induction of apoptosis in human PC3 cells assessed as viable cells at 20 uM after 48 hrs by caspase 3/7 staining-based flow cytometry (reference value: 94.75%); type: functional; conditions: PC-3, 48 h, read-out: Activity
# PC-3 [42] = assay: Induction of apoptosis in human PC3 cells assessed as viable cells at 20 uM after 48 hrs by annexin V-propidium iodide staining-based flow cytometry (reference value: 94.55%); type: functional; conditions: PC-3, 48 h, read-out: Activity
# PC-3 [43] = assay: Induction of ROS generation in human PC3 cells assessed as accumulation at M2 phase at 20 uM after 48 hrs flow cytometry (reference value: 0.33%); type: functional
# MCF7 [44] = assay: Induction of ROS generation in human MCF7 cells assessed as accumulation at M1 phase at 20 uM after 48 hrs flow cytometry (reference value: 97.67%); type: functional
# A549 [45] = assay: Induction of apoptosis in human A549 cells assessed as necrotic cells at 20 uM after 48 hrs by caspase 3/7 staining-based flow cytometry (reference value: 1.50%); type: functional
# PC-3 [46] = assay: Induction of morphological changes in human PC3 cells assessed as reduction in cell density at 20 uM after 72 hrs by phase contrast microscopic method; type: functional, cell-based
# MCF7 [47] = assay: Induction of apoptosis in human MCF7 cells assessed as early apoptotic cells at 20 uM after 48 hrs by annexin V-propidium iodide staining-based flow cytometry (reference value: 2.15%); type: functional
# A549 [48] = assay: Induction of morphological changes in human A549 cells assessed as reduction in cell density at 20 uM after 72 hrs by phase contrast microscopic method; type: functional, cell-based
# A549 [49] = assay: Growth inhibition of human A549 cells at 20 uM after 72 hrs by ATP bioluminescence assay; type: functional, cell-based
# PC-3 [50] = assay: Induction of mitochondrial membrane depolarization in human PC3 cells assessed as depolarized live cells at 20 uM after 48 hrs by 7-AAD/Muse mito-potential dye-based assay (reference value: 12.60%); type: functional
# MCF7 [51] = assay: Induction of mitochondrial membrane depolarization in human MCF7 cells assessed as depolarized live cells at 20 uM after 48 hrs by 7-AAD/Muse mito-potential dye-based assay (reference value: 6.67%); type: functional
# PC-3 [52] = assay: Growth inhibition of human PC3 cells after 72 hrs by ATP bioluminescence assay; type: functional, cell-based; conditions: PC-3, 72 h
# MCF7 [53] = assay: Induction of morphological changes in human MCF7 cells assessed as reduction in cell density at 20 uM after 72 hrs by phase contrast microscopic method; type: functional, cell-based
# PC-3 [54] = assay: Growth inhibition of human PC3 cells at 20 uM after 72 hrs by SRB assay; type: functional, cell-based
# SW-620 = assay: Antiproliferative activity against human SW620 cells after 48 hrs by MTT assay; type: functional, cell-based; conditions: SW-620, 48 h
# CT26.WT = assay: Antiproliferative activity against mouse CT26.WT cells after 48 hrs by MTT assay; type: functional, cell-based
# HCT-116 = assay: Antiproliferative activity against human HCT116 cells after 48 hrs by MTT assay; type: functional, cell-based; conditions: HCT-116, 48 h
compound,measurement,setting,value
CCOc1cccc2cc(C(=O)/C=C/c3ccco3)oc12,growth inhibition (GI),MCF7 [1],Active
same,growth inhibition (GI),MCF7 [2],Active
CCOc1cccc2cc(C(=O)/C=C/c3ccc(N(C)C)cc3)oc12,Activity,A549 [3],20.67%
same,Activity,A549 [4],79.33%
same,Activity,A549 [5],58.7%
same,Activity,MCF7 [6],91.7%
same,Activity,MCF7 [7],0.7%
same,IC50,A549 [8],9 µM
same,Activity,MCF7 [9],13.5%
same,Activity,A549 [10],1.8%
same,viability at 20 µM,A549 [11],23.1%
same,Activity,PC-3 [12],6.45%
same,Activity,A549 [13],95.2%
same,Activity,PC-3 [14],6.9%
same,Activity,A549 [15],50.57%
same,growth inhibition (GI),MCF7 [1],Active
same,Activity,MCF7 [16],45%
same,growth inhibition (GI),MCF7 [2],Active
same,growth inhibition (GI),PC-3 [17],Active
same,Activity,A549 [18],0.2%
same,Activity,MCF7 [19],41%
same,Activity,PC-3 [20],11.1%
same,viability at 20 µM,MCF7 [21],3.3%
same,Activity,A549 [22],1.35%
same,Activity,PC-3 [23],0.65%
same,Activity,PC-3 [24],19.15%
same,Activity,MCF7 [25],14.87%
same,Activity,PC-3 [26],18.6%
same,Activity,PC-3 [27],98.83%
same,Activity,PC-3 [28],31.75%
same,Activity,MCF7 [29],24.3%
same,viability at 20 µM,MCF7 [30],13.8%
same,Activity,A549 [31],32.78%
same,growth inhibition (GI),A549 [32],Active
same,viability at 20 µM,A549 [33],2.8%
same,Activity,A549 [34],7.75%
same,Activity,MCF7 [35],0.26%
same,IC50,MCF7 [36],2 µM
same,Activity,PC-3 [37],37.25%
same,Activity,MCF7 [38],54.3%
same,Activity,PC-3 [39],59.7%
same,Activity,A549 [40],15.29%
same,viability at 20 µM,PC-3 [41],51%
same,viability at 20 µM,PC-3 [42],26.9%
same,Activity,PC-3 [43],1.17%
same,Activity,MCF7 [44],85.13%
same,Activity,A549 [45],10.5%
same,Activity,PC-3 [46],Active
same,Activity,MCF7 [47],4.3%
same,Activity,A549 [48],Active
same,growth inhibition (GI),A549 [49],Active
same,Activity,PC-3 [50],30.5%
same,Activity,MCF7 [51],7.9%
same,IC50,PC-3 [52],10 µM
same,Activity,MCF7 [53],Active
CCOc1cccc2cc(C(=O)/C=C/c3cc(OC)c(OC)cc3OC)oc12,growth inhibition (GI),MCF7 [1],Active
same,growth inhibition (GI),MCF7 [2],Active
same,growth inhibition (GI),PC-3 [17],Active
same,growth inhibition (GI),PC-3 [54],Active
CCOc1cccc2cc(C(=O)/C=C/c3ccc(C)cc3)oc12,growth inhibition (GI),MCF7 [1],Active
same,growth inhibition (GI),MCF7 [2],Active
COc1ccccc1/C=C/C(=O)c1ccc(O)c(O)c1,IC50,SW-620,11.7 µM
same,IC50,CT26.WT,3.36 µM
same,IC50,HCT-116,25.9 µM
